Measurements from ChEMBL document CHEMBL4261593, “Synthesis and antibacterial activity of novel 3-O-arylalkylcarbamoyl-3-O-descladinosyl-9-O-(2-chlorobenzyl)oxime clarithromycin derivatives” (2018).
In brackets after ≈: the same amount, converted by molar mass.

Tests used:
Format in all cases: functional
[1] = test system: Streptococcus pyogenes; assay: Antibacterial activity against erythromycin-susceptible Streptococcus pyogenes 1 after 24 hrs by broth dilution assay; details: Streptococcus pyogenes, 1, 24 h
[2] = test system: Staphylococcus aureus; assay: Antibacterial activity against erythromycin-susceptible Staphylococcus aureus ATCC 25923 after 24 hrs by broth dilution assay; details: ATCC 25923, 24 h
[3] = test system: Escherichia coli; assay: Antibacterial activity against penicillin-susceptible Escherichia coli ATCC 25922 after 24 hrs by broth dilution assay; details: ATCC 25922, 24 h
[4] = test system: Pseudomonas aeruginosa; assay: Antibacterial activity against penicillin-susceptible Pseudomonas aeruginosa ATCC 27853 after 24 hrs by broth dilution assay; details: ATCC 27853, 24 h
[5] = test system: Bacillus subtilis; assay: Antibacterial activity against penicillin-susceptible Bacillus subtilis ATCC 9372 after 24 hrs by broth dilution assay; details: ATCC 9372, 24 h
[6] = test system: Staphylococcus aureus; assay: Antibacterial activity against […] Staphylococcus aureus ATCC 29213 after 24 hrs by broth dilution assay; details: ATCC 29213, 24 h
[7] = test system: Staphylococcus aureus; assay: Antibacterial activity against penicillin-resistant Staphylococcus aureus ATCC 31007 after 24 hrs by broth dilution assay; details: ATCC 31007, 24 h
[8] = test system: Streptococcus pyogenes; assay: Antibacterial activity against erythromycin-resistant Streptococcus pyogenes 2 after 24 hrs by broth dilution assay; details: Streptococcus pyogenes, 2, 24 h
[9] = test system: Streptococcus pneumoniae; assay: Antibacterial activity against erythromycin-resistant Streptococcus pneumoniae A22072 expressing mefA gene after 24 hrs by broth dilution assay; details: A22072, 24 h
[10] = test system: Streptococcus pneumoniae; assay: Antibacterial activity against erythromycin-resistant Streptococcus pneumoniae B1 expressing ermB gene after 24 hrs by broth dilution assay; details: B1, 24 h
[11] = test system: Streptococcus pneumoniae; assay: Antibacterial activity against erythromycin-resistant Streptococcus pneumoniae AB11 expressing ermB and mefA genes after 24 hrs by broth dilution assay; details: AB11, 24 h
[12] = test system: Staphylococcus aureus; assay: Potency index, ratio of CAM MIC to compound MIC for antibacterial activity against penicillin-resistant Staphylococcus aureus ATCC 31007
[13] = test system: Staphylococcus aureus; assay: Potency index, ratio of AZM MIC to compound MIC for antibacterial activity against penicillin-resistant Staphylococcus aureus ATCC 31007
[14] = test system: Streptococcus pyogenes; assay: Potency index, ratio of CAM MIC to compound MIC for antibacterial activity against erythromycin-resistant Streptococcus pyogenes 2
[15] = test system: Streptococcus pyogenes; assay: Potency index, ratio of AZM MIC to compound MIC for antibacterial activity against erythromycin-resistant Streptococcus pyogenes 2
[16] = test system: Streptococcus pneumoniae; assay: Potency index, ratio of CAM MIC to compound MIC for antibacterial activity against erythromycin-resistant Streptococcus pneumoniae A22072
[17] = test system: Streptococcus pneumoniae; assay: Potency index, ratio of AZM MIC to compound MIC for antibacterial activity against erythromycin-resistant Streptococcus pneumoniae A22072

Structure (SMILES)	MIC [1]	MIC [2]	MIC [3]	MIC [4]	MIC [5]	MIC [6]	MIC [7]	MIC [8]	MIC [9]	MIC [10]	MIC [11]	Ratio [12]	Ratio [13]	Ratio [14]	Ratio [15]	Ratio [16]	Ratio [17]
CC[C@H]1OC(=O)[C@H](C)[C@@H](OC(=O)NCc2cccc(F)c2)[C@H](C)[C@@H](O[C@@H]2O[C@H](C)C[C@H](N(C)C)[C@H]2O)[C@](C)(OC)C[C@@H](C)/C(=N/OCc2ccccc2Cl)[C@H](C)[C@@H](O)[C@]1(C)O	1 µg/mL (≈ 1.14 µM)	4 µg/mL (≈ 4.54 µM)	128 µg/mL (≈ 145 µM)	128 µg/mL (≈ 145 µM)	2 µg/mL (≈ 2.27 µM)	128 µg/mL (≈ 145 µM)	4 µg/mL (≈ 4.54 µM)	8 µg/mL (≈ 9.09 µM)	0.5 µg/mL (≈ 0.568 µM)	128 µg/mL (≈ 145 µM)	128 µg/mL (≈ 145 µM)	64	64	32	32	–	–
CC[C@H]1OC(=O)[C@H](C)[C@@H](OC(=O)NCC(C)C)[C@H](C)[C@@H](O[C@@H]2O[C@H](C)C[C@H](N(C)C)[C@H]2O)[C@](C)(OC)C[C@@H](C)/C(=N/OCc2ccccc2Cl)[C@H](C)[C@@H](O)[C@]1(C)O	1 µg/mL (≈ 1.21 µM)	8 µg/mL (≈ 9.66 µM)	128 µg/mL (≈ 154 µM)	128 µg/mL (≈ 154 µM)	2 µg/mL (≈ 2.41 µM)	128 µg/mL (≈ 154 µM)	8 µg/mL (≈ 9.66 µM)	16 µg/mL (≈ 19.3 µM)	1 µg/mL (≈ 1.21 µM)	128 µg/mL (≈ 154 µM)	128 µg/mL (≈ 154 µM)	–	–	–	–	–	–
CC[C@H]1OC(=O)[C@H](C)[C@@H](OC(=O)NCCc2ccc(F)cc2)[C@H](C)[C@@H](O[C@@H]2O[C@H](C)C[C@H](N(C)C)[C@H]2O)[C@](C)(OC)C[C@@H](C)/C(=N/OCc2ccccc2Cl)[C@H](C)[C@@H](O)[C@]1(C)O	2 µg/mL (≈ 2.24 µM)	4 µg/mL (≈ 4.47 µM)	128 µg/mL (≈ 143 µM)	128 µg/mL (≈ 143 µM)	2 µg/mL (≈ 2.24 µM)	128 µg/mL (≈ 143 µM)	4 µg/mL (≈ 4.47 µM)	8 µg/mL (≈ 8.94 µM)	1 µg/mL (≈ 1.12 µM)	128 µg/mL (≈ 143 µM)	128 µg/mL (≈ 143 µM)	–	–	–	–	–	–
CCNC(=O)O[C@H]1[C@H](C)[C@@H](O[C@@H]2O[C@H](C)C[C@H](N(C)C)[C@H]2O)[C@](C)(OC)C[C@@H](C)/C(=N/OCc2ccccc2Cl)[C@H](C)[C@@H](O)[C@](C)(O)[C@@H](CC)OC(=O)[C@@H]1C	2 µg/mL (≈ 2.5 µM)	16 µg/mL (≈ 20 µM)	128 µg/mL (≈ 160 µM)	128 µg/mL (≈ 160 µM)	8 µg/mL (≈ 9.99 µM)	128 µg/mL (≈ 160 µM)	16 µg/mL (≈ 20 µM)	32 µg/mL (≈ 40 µM)	1 µg/mL (≈ 1.25 µM)	128 µg/mL (≈ 160 µM)	128 µg/mL (≈ 160 µM)	–	–	–	–	–	–
CCCNC(=O)O[C@H]1[C@H](C)[C@@H](O[C@@H]2O[C@H](C)C[C@H](N(C)C)[C@H]2O)[C@](C)(OC)C[C@@H](C)/C(=N/OCc2ccccc2Cl)[C@H](C)[C@@H](O)[C@](C)(O)[C@@H](CC)OC(=O)[C@@H]1C	1 µg/mL (≈ 1.23 µM)	8 µg/mL (≈ 9.82 µM)	128 µg/mL (≈ 157 µM)	128 µg/mL (≈ 157 µM)	2 µg/mL (≈ 2.46 µM)	128 µg/mL (≈ 157 µM)	16 µg/mL (≈ 19.6 µM)	8 µg/mL (≈ 9.82 µM)	0.125 µg/mL (≈ 0.153 µM)	128 µg/mL (≈ 157 µM)	128 µg/mL (≈ 157 µM)	–	–	32	32	16	32
CC[C@H]1OC(=O)[C@H](C)[C@@H](OC(=O)NCCc2ccc(OC)cc2)[C@H](C)[C@@H](O[C@@H]2O[C@H](C)C[C@H](N(C)C)[C@H]2O)[C@](C)(OC)C[C@@H](C)/C(=N/OCc2ccccc2Cl)[C@H](C)[C@@H](O)[C@]1(C)O	2 µg/mL (≈ 2.21 µM)	16 µg/mL (≈ 17.6 µM)	128 µg/mL (≈ 141 µM)	128 µg/mL (≈ 141 µM)	2 µg/mL (≈ 2.21 µM)	128 µg/mL (≈ 141 µM)	4 µg/mL (≈ 4.41 µM)	8 µg/mL (≈ 8.82 µM)	1 µg/mL (≈ 1.1 µM)	128 µg/mL (≈ 141 µM)	128 µg/mL (≈ 141 µM)	–	–	–	–	–	–
